Square brackets hold non-standard residues; d marks the D form. Peptide text beside a SMILES is read from it. * marks the point of attachment. dPhg = N[C@@H](C(=O)O)c1ccccc1; Phg = N[C@H](C(=O)O)c1ccccc1; X1 = CC(C)(C)OC(=O)NOCC(=O)*
How the values were obtained:
gastric acid secretion [1] = experiment: Gastric acid secretion increasing effect, administered parenterally or enterally (methods of Ghosh and Schild and of Lai, modified by Pissidis and Clark); format: in vivo
Procedure: The biological activities of the new compounds according to the invention were tested by the methods of Ghosh and Schild (Br. J. Pharmac. Chemoth. 13, 54 1958) and Lai (Gut 5, 327 1964), modified by Pissidis and Clark (Gut 8, 196 1967). The pharmacological tests have shown that the new compounds, when administered intravenously, increase the gastric acid secretion to a great extent. […] It is also remarkable that some of the new compounds highly increase the gastric acid secretion after resorption from the rectum.

gastric acid secretion [2] = conditions: in vivo; cited from earlier work

CSCC[C@H](NC(=O)[C@H](Cc1c[nH]c2ccccc12)NC(=O)CONC(=O)OC(C)(C)C)C(=O)N[C@@H](CC(=O)O)C(=O)N[C@@H](C(N)=O)c1ccccc1 [BOC-OGly Met D, 2-(tert.-Butoxycarbonyl-aminooxy)-acetyl-L-tryptophyl-L-methionyl-L-aspartyl-D-phenylglycine-amide] (X1-WMD[dPhg]-NH2)
Gastric acid secretion increasing effect in comparison with that of a 0.2 μg/100 g i.v. dosage of pentagastrin (gastric acid secretion [1]; 0.2 μg i.v.): 28
Gastric acid secretion increasing effect in comparison with that of a 0.2 μg/100 g i.v. dosage of pentagastrin (gastric acid secretion [1]; 2.0 μg i.v.): 50

CSCC[C@H](NC(=O)[C@H](Cc1c[nH]c2ccccc12)NC(=O)CONC(=O)OC(C)(C)C)C(=O)N[C@@H](CC(=O)O)C(=O)N[C@H](C(N)=O)c1ccccc1 [BOC-OGly Met L, 2-(tert.-Butoxycarbonyl-aminooxy)-acetyl-L-tryptophyl-L-methionyl-L-aspartyl-L-phenylglycine-amide] (X1-WMD[Phg]-NH2)
Gastric acid secretion increasing effect in comparison with that of a 0.2 μg/100 g i.v. dosage of pentagastrin (gastric acid secretion [1]; 2.0 μg i.v.): 116
Gastric acid secretion increasing effect in comparison with that of a 0.2 μg/100 g i.v. dosage of pentagastrin (gastric acid secretion [1]; 20 μg intestinal (text: 20 μg/100 g body weight)): 124
Gastric acid secretion increasing effect in comparison with that of a 0.2 μg/100 g i.v. dosage of pentagastrin (gastric acid secretion [1]; 20 μg rectal): 38

CSCC[C@H](NC(=O)[C@H](Cc1c[nH]c2ccccc12)NC(=O)CCNC(=O)OC(C)(C)C)C(=O)N[C@@H](CC(=O)O)C(=O)N[C@@H](Cc1ccccc1)C(N)=O [pentagastrin, BOC-β-Ala-Trp-Met-Asp-Phe-NH2, reference compound]
Effect on gastric acid secretion (gastric acid secretion [1]; administered enterally, even in higher dosages): does not increase the gastric acid secretion

H-Trp-Met-Asp-Phe-NH2
Gastric acid secretion stimulating effect relative to the total hormone (gastrin) (gastric acid secretion [2]): lower by about one order of magnitude
